What all share (assay type): cell-based
Assay [1] has as its system PI3K. In words: Multiplex kinase assay on immobilized full length protein substrates (pool 1, pool 2) with lysates of P31-Fuj AML cells, LC-MS readout. Details: relative kinase activity (normalized to mean of control and treated, log 2 converted), phosphopeptide SMAD-1 RVESPVLPPVLVPR SEQ ID NO: 5: dose or concentration left out as unconfirmed. The protocol: P31-Fuj AML cells were seeded at a density of 500000 cells/mL. […] Cells were washed twice in ice cold PBS containing 100 mM NaVO3 and 1 mM NaF and were subsequently harvested and lysed in the following lysis buffer: 40 mM Hepes pH 7.5, 120 mM NaCl, 1 mM EDTA, 10 mM pyrophosphate, 10 mM glycerophosphate, 50 mM NaF, 0.5 mM orthovanadate, 0.3% CHAPS, and complete protease inhibitors (Roche). […] After allowing the reactions to occur in the presence of ATP and Mg^2+, samples were trypsin digested and subject to LC-MS analysis. […] Data from a peptide kinase assay using the Aktide peptide (a peptide substrate with sequence RPRAATF—SEQ ID NO: 24—known to provide a readout of PI3K pathway activation) was compared with the data from a multiplex kinase assay using full length protein substrates.

Assay [2] relates to PI3K. The experiment in a line: Peptide kinase assay using the Aktide peptide (protocols of WO 07/127,767) with P31-Fuji total cell lysates. Conditions: P31-Fuji cells treated with LY294002 before lysis, vs control.
Description: Data from a peptide kinase assay using the Aktide peptide (a peptide substrate with sequence RPRAATF—SEQ ID NO: 24—known to provide a readout of PI3K pathway activation) was compared with the data from a multiplex kinase assay using full length protein substrates. For this, P31-Fuji cells (an acute myeloid leukaemia cell line) were lysed and the kinase activity in total cell lysates measured using the protocols disclosed in WO 07/127,767 or using the protocols disclosed herein. Before lysis, cells were divided into two groups—(1) control and (2) treated with LY294002 (an inhibitor of PI3K which controls downstream protein kinases that phosphorylate the Aktide).
The test system of another assay is PI3K signalling activity. The experiment in a line: Kinase reaction on immobilized BAD with lysates of serum-stimulated NIH-3T3 cells pre-treated or not with inhibitors, LC-MS readout. Conditions: starved NIH-3T3 cells pre-treated with inhibitor, 10% fetal calf serum 5 minutes before lysis. How it is done:
Starved NIH-3T3 cells, pre-treated or not with the inhibitors Wortmannin (WM) or PD98059 (PD), were stimulated with 10% fetal calf serum for 5 minutes prior to cell lysis. Cell lysates were mixed with immobilized BAD and ATP/Mg^2+ and reactions allowed to occur at 37° C. for the indicated times. Reactions were stopped and beads washed to remove lysate components and to buffer exchange to 50 mM ammonium bicarbonate. Immobilized phosphorylated BAD was digested with trypsin and resultant peptides analysed by LC-MS and LC-MS/MS.
Mass spectrometry was used to multiplex the measurement of protein kinase activities, using BAD as a substrate for in vitro reactions. BAD is a known substrate of the protein kinase AKT/PKB, which is downstream of PI3K and upstream mTORC1. Mouse His-Tag-BAD protein was immobilized to SEPHAROSE® beads. In subsequent experiments, human proteins were synthesised with N-terminal GST and His tags separated by a PreScission protease cleavage site. Purification was performed with glutathione S-sepharose chromatography. […] These immobilized proteins were used as substrates for kinase reactions using total cell lysates as an enzyme source.
Starved NIH-3T3 cells, pre-treated or not with the inhibitors WM or PD, were stimulated with 10% fetal calf serum for 5 minutes prior to cell lysis. Cell lysates were mixed with immobilized BAD and ATP/Mg^2+ and reactions allowed to occur at 37° C. for the times indicated in FIG. 3. Reactions were stopped, and the beads washed three times to remove lysate components and to buffer exchange to 50 mM ammonium bicarbonate. For each wash, beads were isolated from the reaction by magnetic separation using a magnet. Immobilised phosphorylated BAD was digested with trypsin and resultant peptides analysed by LC-MS and LC-MS/MS. […] These observed activities increased when serum was added to the medium prior to lysis and were sensitive to the addition of wortmannin (WM) but not the MEK inhibitor PD98059 (PD), thus arguing that these activities are a measure of WM target inhibition, probably PI3K signalling activity, a known target of WM, and are probably downstream PI3K.

Where [3] appears, read: Pool 1, P31-Fuj AML cells, 10 mM LY204002 for 1 hr.
The mark [4] stands for this setting: Pool 2, P31-Fuj AML cells, 10 mM LY204002 for 1 hr.
The mark [5] stands for this setting: full length protein substrate, P31-Fuji cells treated with LY294002 before lysis, vs control.

Consider `O=c1cc(N2CCOCC2)oc2c(-c3ccccc3)cccc12` [Ly294002, LY294002], for which, in the assay with PI3K [1] (setting [3]), the “relative kinase activity (normalized, log 2), phosphopeptide Annexin MYGISLCQAILDETKGDYEK SEQ ID NO: 11” value is given as 0.429; the “relative kinase activity (normalized, log 2), phosphopeptide Beta Catenin AAVSHWQQQSYLDSGIHSGATTTAPSLSGK SEQ ID NO: 12” value is listed as −1.337; the “relative kinase activity (normalized, log 2), phosphopeptide Beta Catenin TSMGGTQQQFVEGVR SEQ ID NO: 13” value is −0.5836; the “relative kinase activity (normalized, log 2), phosphopeptide SMAD-1 HSEYNPQHSLLAQFR SEQ ID NO: 6” value is −2.2905. In the assay with PI3K [1] (setting [3]), the “relative kinase activity (normalized, log 2), phosphopeptide myc CHVSTHQHNYAAPPSTR SEQ ID NO: 7” value was 0.1282; the “relative kinase activity (normalized, log 2), phosphopeptide myc FELLPTPPLSPSR SEQ ID NO: 8” value is reported as 0.1492; the “relative kinase activity (normalized, log 2), phosphopeptide myc FELLPTPPLSPSRR SEQ ID NO: 9” value is recorded as −0.0685; the “relative kinase activity (normalized, log 2), phosphopeptide myc VKLDSVR SEQ ID NO: 10” value is reported as -0.3467. The “relative kinase activity (normalized to mean of control and treated, log 2 converted), phosphopeptide SMAD-1 RVESPVLPPVLVPR SEQ ID NO: 5” value in the assay on PI3K [1] (Pool 1, P31-Fuj AML cells, LY204002 for 1 hr) is given as −0.6559. Moreover, in the assay with PI3K [1] (setting [4]), the “relative kinase activity (normalized, log 2), phosphopeptide 4ebp1 TPPRDLPTIPGVTSPSSDEPPMEASQSHLR SEQ ID NO: 19” value was −4.332; the “relative kinase activity (normalized, log 2), phosphopeptide S6 DIPGLTDTTVPR SEQ ID NO: 14” value is recorded as −0.573; the “relative kinase activity (normalized, log 2), phosphopeptide S6 DIPGLTDTTVPRR SEQ ID NO: 15” value came to 0.007685; the “relative kinase activity (normalized, log 2), phosphopeptide foxo AVSMDNSNKYTK SEQ ID NO: 18” value is −0.6542. For the same compound, in the assay with PI3K [1] (setting [4]), the “relative kinase activity (normalized, log 2), phosphopeptide foxo HNLSLHSR SEQ ID NO: 17” value is on record as −0.1853; the “relative kinase activity (normalized, log 2), phosphopeptide foxo WPGSPTSR SEQ ID NO: 16” value is listed as −0.6519; the “relative kinase activity (normalized, log 2), phosphopeptide p53 ALPNNTSSSPQPK SEQ ID NO: 21” value is listed as −5.826; the “relative kinase activity (normalized, log 2), phosphopeptide p53 CSDSDGLAPPQHLIR SEQ ID NO: 22” value was −3.078. For the same compound, in the assay with PI3K [1] (setting [4]), the “relative kinase activity (normalized, log 2), phosphopeptide p53 RALPNNTSSSPQPK SEQ ID NO: 23” value is given as −1.587 and the “relative kinase activity (normalized, log 2), phosphopeptide p53 SVTCTYSPALNK SEQ ID NO: 20” value is on record as −2.051. Moreover, in the assay on PI3K [1] (setting [5]), the “reduction of kinase activity towards Ser94 on the substrate 4EBP1” value worked out at 95% and the “reduction of kinase activity towards Ser121 on the substrate p53” value was 99%. Besides, in the assay with PI3K [2], the “reduction on the kinase activity towards the Aktide” value was “about 85%”.

Take `COc1cccc(-c2cc(=O)c3ccccc3o2)c1N` [PD98059]: in the assay with PI3K signalling activity, the “kinase activity towards BAD pS136 (SEQ ID NO: 4)” value is reported as “not sensitive” and the “kinase activity towards BAD pS170 (SEQ ID NO: 3)” value is on record as “not sensitive”. Moreover, in the assay on PI3K signalling activity (listed as PD), the “kinase activity towards BAD pS136 (SEQ ID NO: 4)” value is on record as “sensitive to the addition of WM but not PD” and the “kinase activity towards BAD pS170 (SEQ ID NO: 3)” value is “sensitive to the addition of WM but not PD”.
